PMC7738869, “A novel STAT3 inhibitor W2014-S regresses human non-small cell lung cancer xenografts and sensitizes EGFR-TKI acquired resistance” (Theranostics, 2021)

Legend:
PC-9/GR xenografts = conditions: gefitinib intragastric 20 mg/kg per day, W2014-S 10 mg/kg/day, 21 d
Description: For PDX model, the PDX sample was from The Jackson Laboratory. […] The tumor sample were cut into approximately 1 mm^3, and the tissue was pushed under skin of mice by TROCHAR. When tumor volumes reached approximately 100 mm^3, mice were randomly distributed into groups of 7 mice. […] Tumor size was measured every two days by vernier caliper. The average tumor volume in each group was calculated based on the equation for a prolate spheroid (tumor volume = (short-diameter)^2 × large-diameter × π / 6 ) and expressed in mm^3.

PC-9/GR cells = assay: Cell apoptosis assay (Annexin V-FITC/PI flow cytometry), PC-9/GR; type: cell-based, human; conditions: gefitinib 2 μM and/or W2014-S 1 μM, 72 h
Description: Briefly, aliquots of 2 × 10^5 cells were seeded into 6-well plates and incubated for 24 h at 37 °C. […] After trypsinization and gently washing cells once with medium, the cells were washed twice with cold PBS. The precipitation was resuspended by 400 μL of 1 × binding buffer, and then resuspended cells were transferred into new 1.5 mL EP tubes. Then 3 μL of Annexin V-FITC and 5 μL of propidium iodide were added to the resuspended cells with further incubation at room temperature for 15 min in the dark. The analysis was done on Guava easyCyte (USA) and FlowJo 7.6 software.

A549 cells [1] = assay: Transwell cell invasion assay, A549; conditions: A549, 1 μM
Description: Transwell invasion assays were performed as previously reported [37] using Transwell chamber (Costar, USA). […] Data from triplicates experiments were pooled and plotted as shown.

PC-9 cells [2] = assay: Colony formation assay, PC-9; type: cell-based, human; conditions: PC-9, as low as 0.3 μM
PC-9 cells [3] = assay: Cell viability assay (CCK-8), PC-9; type: cell-based; conditions: Homo sapiens, PC-9, 72 h, read-out: IC50 cell proliferation
Description: (§1) Cell proliferation was measured using the Cell Counting Kit-8 (CCK-8, B34304, Bimake, USA). A549 (2 × 10^3/100 μL/well), PC-9 (3 × 10^3/100 μL/well) or PC-9/GR cells (3 × 10^3/100 μL/well) were plated into each well of 96-well plates (Costar, USA). […] Then, 10 μL of CCK-8 was added to each well, and cells were incubated for 1-4 h until the color of untreated controls turned to orange. The absorbance (A) was measured by a microplate reader (FLUOstar Omega-ACU, USA) at test and reference wavelengths of 450 nm. The percentage of growth was calculated as Cell viability (%) = [A (Compound +) - A (Blank) ] / [A (Compound -) - A (Blank) ] × 100%. Cell viability meant proliferation of cells. Each experiment was done at least in triplicate, and thrice independently.

A549 cells [4] = assay: Colony formation assay, A549; type: cell-based, human; conditions: A549, as low as 0.3 μM
[5] = biological target: full-length wild-type STAT3 (Homo sapiens, UniProt P40763); assay: Surface plasmon resonance analysis of binding to STAT3; conditions: SPR
full-length wild-type STAT3, sequence (P40763 whole entry): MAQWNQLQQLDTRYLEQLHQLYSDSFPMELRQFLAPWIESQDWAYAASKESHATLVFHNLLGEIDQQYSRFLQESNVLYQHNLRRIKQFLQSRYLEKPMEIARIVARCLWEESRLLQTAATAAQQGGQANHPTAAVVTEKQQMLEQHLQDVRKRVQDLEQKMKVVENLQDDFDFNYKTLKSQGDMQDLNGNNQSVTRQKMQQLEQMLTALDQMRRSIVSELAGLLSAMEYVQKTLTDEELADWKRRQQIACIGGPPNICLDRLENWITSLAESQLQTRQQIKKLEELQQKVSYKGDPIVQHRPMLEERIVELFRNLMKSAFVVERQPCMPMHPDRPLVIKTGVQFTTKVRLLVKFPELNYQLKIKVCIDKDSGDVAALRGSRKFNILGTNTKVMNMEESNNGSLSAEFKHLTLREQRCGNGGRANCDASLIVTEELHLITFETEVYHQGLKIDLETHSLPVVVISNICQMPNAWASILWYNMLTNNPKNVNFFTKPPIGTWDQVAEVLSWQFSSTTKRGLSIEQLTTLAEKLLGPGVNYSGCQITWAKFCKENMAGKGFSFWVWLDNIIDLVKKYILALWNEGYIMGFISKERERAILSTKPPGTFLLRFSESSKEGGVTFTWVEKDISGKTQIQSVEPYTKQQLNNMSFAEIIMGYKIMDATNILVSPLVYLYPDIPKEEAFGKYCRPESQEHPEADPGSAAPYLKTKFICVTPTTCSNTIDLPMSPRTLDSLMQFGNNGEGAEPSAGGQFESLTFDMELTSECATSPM
Description: Biacore 8K and Biacore Insight Evaluation software were used to analyze the interaction between the agents and the protein full-length wild-type STAT3 to detect the binding affinity. Purified STAT3 (100 μg/mL) without Tris and glycerin was injected onto the CM5 Chip (GE, USA) for immobilization. Several concentrations of W2014-S or W2014-R dissolved in running buffer (1×PBS with filtration, 0.01% DMSO) were flown over the chip to produce response signals. The kinetics and affinities were calculated by the Biacore Insight Evolution software, and the results were determined as the binding affinity (KD).

A549 cells [6] = assay: Wound healing assay for migration; type: cell-based, human; conditions: 48 h
Description: The motility of cells was measured by wound healing assay. Cells were seeded into 6-well plates and cultured to 90-100% confluent after 24 h. Wounds were made in each well of 6-well plates using pipette tips. […] The migration of cells was visualized under a microscope (4 ×, Nikon, Japan) and photographed in different time points (0 and 48 h).

A549 cells [7] = assay: Cell viability assay (CCK-8), A549; type: cell-based; conditions: Homo sapiens, A549, 72 h, read-out: IC50 cell proliferation
Description: as §1

Compound	xenograft tumor growth (PC-9/GR xenografts)	Q1 (PC-9/GR cells)	Q2 (PC-9/GR cells)	Q3 (PC-9/GR cells)	Q4 (PC-9/GR cells)	cell invasion (A549 cells [1])	colony formation (PC-9 cells [2])	IC50 (PC-9 cells [3])	colony formation (A549 cells [4])	Kd [5]	cell migration (A549 cells [6])	IC50 (A549 cells [7])
COc1cc2ncnc(Nc3ccc(F)c(Cl)c3)c2cc1OCCCN1CCOCC1 [Gefitinib, reference compound]	slight inhibitory effect	0.103%	4.61%	3.05%	92.2%							
C[C@@H](Oc1ccc(-c2nc3nc(C4=CCN(C(=O)OC(C)(C)C)CC4)ccc3[nH]2)cc1)c1ccccc1 [W2014-R]						not	significantly suppressed the colony formation	2.66 µM	significantly suppressed the colony formation	3.39 µM	slightly inhibition	2.42 µM
